Values quoted from earlier work in patent JP2021073187A, “即効型インスリン組成物” (Eli Lilly and Co, priority 2014, dated 2021).

## インスリンリスプロ: drug substance of HUMALOG, CAS 133107-64-9; A chain SEQ ID 1, B chain SEQ ID 3 [28B−L−リジン−29B−L−プロリン ヒトインスリン]
On a molar basis
  Potency relative to human insulin: 等しい効力
Subcutaneous injection
  Effect after subcutaneous injection relative to injected soluble human insulin: 迅速で短い持続時間
